Assay results from patent publication US12564582B2 (Prilenia Neurotherapeutics Ltd., priority 2016, dated 2026).
Read-outs that look alike come from different tables or passages of the source.

Tests used:
[1] = test system: patients with Huntington's disease; details: Week 52;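 for Δ to placebo, change from baseline in UHDRS TMS Finger Taps: finger tapping item rates tapping with fingers of both hands, normal being 15 taps within 5 s, the combined score adds forearm pronation and supination on each side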
From the text: Motor deficits can be objectively assessed using different Q-Motor assessments. All Q-Motor assessments are based on the application of precalibrated and temperature controlled force transducers and 3-dimensional position sensors with very high sensitivity and test-retest reliability across sessions and sites in a multicenter clinical study. Q-Motor measures thus aim to reduce the limited sensitivity of categorical clinical rating scales, the intra- and inter-rater variability, and placebo effects observed in scales such as UHDRS-TMS. In addition, Q-Motor assessments allow for the objective monitoring of unintended motor side-effects in clinical studies. Thus, Q-Motor is an objective, reliable, and sensitive measure of motor function that is free of rater bias and limits placebo effect influence.
This task assessed the regularity of hand taps performed when alternating between the palm and dorsal surface of the hand performing a repetitive pronation/supination movement. The force and duration of the hand taps are recorded similarly to the speeded tapping task. A tone cues the start and end of an assessment. Five trials of 10 seconds duration are performed with each hand.

[2] = test system: patients with Huntington's disease; details: 45 mg b.i.d, pooled MermaiHD, HART and Pride-HD, BL dystonia ≥4;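 for Δ to placebo, change from baseline in UHDRS TMS Finger Taps: finger tapping item rates tapping with fingers of both hands, normal being 15 taps within 5 s, the combined score adds forearm pronation and supination on each side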
[3] = test system: patients with Huntington's disease;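 for Δ to placebo, change from baseline in UHDRS TMS Finger Taps: finger tapping item rates tapping with fingers of both hands, normal being 15 taps within 5 s, the combined score adds forearm pronation and supination on each side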
Method: The study also compared data from all patients to those obtained in HD subpopulations.
The primary efficacy variable and endpoint for this study was change from baseline in the UHDRS TMS (defined as the sum of all UHDRS motor domains ratings) at Week 26 or Week 52. The primary measure of motor impairment is the UHDRS motor assessment section, which was administered by a trained examiner. The first part of the motor assessment consisted of five TMS subscores, provided below. The sum total of all the 31 items is referred to as the Total Motor Score (TMS). The secondary efficacy variable and endpoint was change from baseline in the mPPT at Week 26 or Week 52. The TMS scale includes measurement of dystonia.
It is a research tool which has been developed to provide a uniform assessment of the clinical features and course of HD. The TMS component of UHDRS comprises 31 assessments from the 15 items of the UHDRS, with each assessment rated on a 5-point scale from 0 (normal) to 4 (maximally abnormal).
The change from baseline in UHDRS-TMS was analyzed using a Repeated Measures model (SAS® MIXED procedure with REPEATED sub-command). The model includes the following fixed effects: categorical week in study by treatment interaction, center, neuroleptic use or no use, and baseline UHDRS-TMS score. The unstructured covariance matrix for repeated observations within patients was used.

[4] = test system: patients with Huntington's disease; details: Week 26; for Δ to placebo, change from baseline in UHDRS TMS Chorea: ALL; for Wk 26 Δ to placebo, change from baseline in UHDRS TMS Chorea: Stage 1 BL TFC 11-13;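 for Δ to placebo, change from baseline in UHDRS TMS Finger Taps: finger tapping item rates tapping with fingers of both hands, normal being 15 taps within 5 s, the combined score adds forearm pronation and supination on each side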
From the text: In the UHDRS, maximal chorea was scored from 0 (absent) to 4 (marked/prolonged) on each of the following items: face, mouth, trunk, right upper extremity, left upper extremity, right lower extremity, and left lower extremity. Maximal chorea is the sum of all scores.

[5] = test system: patients with Huntington's disease; remark: listed apart in the source
From the text: Finger Taps and Pronate-Supinate (P/S) hands is a combination of finger tapping (the ability to tap the fingers of both hands where 15 repetitions in 5 seconds is considered normal) with pronation/supination (the ability to rotate the forearm and hand such that the palm is down (pronation) and to rotate the forearm and hand such that the palm is up (supination) on both sides of the body).
The hand movement score is defined as the sum of UHDRS domains finger taps, pronate-supinate hands and luria (fist-hand-palm test).
An assessment of the ability to rotate the forearm and hand such that the palm is down (pronation) and to rotate the forearm and hand such that the palm is up (supination) on both sides of the body.

[6] = 45 mg bid, score at week 26, patients who have completed 52 weeks of treatment
[7] = 45 mg bid, score at week 52, patients who have completed 52 weeks of treatment

CCCN1CCC(c2cccc(S(C)(=O)=O)c2)CC1 [pridopidine, 4-[3-(methylsulfonyl)phenyl]-1-propyl-piperidine]
Wk 52 Δ to placebo, change from baseline in Q-Motor: Pro-Sup-Frequency-MN-Hand ([1]; 45 mg bid, FAS): 0.0599 Hz
Wk 52 Δ to placebo, change from baseline in Q-Motor: Pro-Sup-Frequency-MN-Hand ([1]; 45 mg bid, HD1 and HD2 patients): 0.1195 Hz
Wk 52 Δ to placebo, change from baseline in Q-Motor: Pro-Sup-Frequency-MN-Hand ([1]; 67.5 mg bid, FAS): −0.0124 Hz
Wk 52 Δ to placebo, change from baseline in Q-Motor: Pro-Sup-Frequency-MN-Hand ([1]; 67.5 mg bid, HD1 and HD2 patients): 0.0548 Hz
Wk 52 Δ to placebo, change from baseline in Q-Motor: Pro-Sup-Frequency-MN-Hand ([1]; 90 mg bid, FAS): −0.0087 Hz
Wk 52 Δ to placebo, change from baseline in Q-Motor: Pro-Sup-Frequency-MN-Hand ([1]; 90 mg bid, HD1 and HD2 patients): 0.0575 Hz
Wk 52 Δ to placebo, change from baseline in Q-Motor: Pro-Sup-Frequency-MN-Hand ([1]; 112.5 mg bid, FAS): 0.0127 Hz
Wk 52 Δ to placebo, change from baseline in Q-Motor: Pro-Sup-Frequency-MN-Hand ([1]; 112.5 mg bid, HD1 and HD2 patients): 0.08 Hz
UHDRS Dystonia score compared to placebo ([2]; Week 26): statistically significant improvement
UHDRS Dystonia score compared to placebo ([2]; Week 52): trend toward this improvement was maintained
UHDRS-TMS change from baseline over time ([3]; 45 mg bid, HD1 patients, after 52 weeks): improvement in TMS score
Δ to placebo, change from baseline in UHDRS TMS ([3]; 45 mg bid, Week 26, ALL): 1.42
Δ to placebo, change from baseline in UHDRS TMS ([3]; 45 mg bid, Week 26, Stage 1 BL TFC 11-13): −4.47
Δ to placebo, change from baseline in UHDRS TMS ([3]; 45 mg bid, Week 52, ALL): 0.59
Wk 52 Δ to placebo, change from baseline in UHDRS TMS ([3]; 45 mg bid, Week 52, Stage 1 BL TFC 11-13): −5.32
TMS change from baseline vs historical placebo ([3]; 45 mg bid, historical placebo in HART and MermaiHD): significant
Δ to placebo, change from baseline in UHDRS TMS ([3]; 67.5 mg bid, Week 26, ALL): 1.71
Δ to placebo, change from baseline in UHDRS TMS ([3]; 67.5 mg bid, Week 26, Stage 1 BL TFC 11-13): −3
Δ to placebo, change from baseline in UHDRS TMS ([3]; 67.5 mg bid, Week 52, ALL): 2.55
Wk 52 Δ to placebo, change from baseline in UHDRS TMS ([3]; 67.5 mg bid, Week 52, Stage 1 BL TFC 11-13): −0.84
Δ to placebo, change from baseline in UHDRS TMS ([3]; 90 mg bid, Week 26, ALL): 0.67
UHDRS TMS score at week 26 compared to baseline ([3]; 90 mg bid, Week 26, BL TFC 11-13, read from FIG. 8b): about −8
Δ to placebo, change from baseline in UHDRS TMS ([3]; 90 mg bid, Week 26, Stage 1 BL TFC 11-13): −6.15
Δ to placebo, change from baseline in UHDRS TMS ([3]; 90 mg bid, Week 52, ALL): 1.78
Wk 52 Δ to placebo, change from baseline in UHDRS TMS ([3]; 90 mg bid, Week 52, Stage 1 BL TFC 11-13): −7.1
Total Motor Score (TMS) change from baseline, treatment effect ([3]; 90 mg bid, compared with other doses): largest treatment effect
TMS change from baseline vs historical placebo ([3]; 90 mg bid, historical placebo in HART and MermaiHD): significant
Total Motor Score (TMS) change from baseline, difference vs historical placebo ([3]; 90 mg bid, week 26, historical placebo in HART and MermaiHD): ~6.5 TMS point
Δ to placebo, change from baseline in UHDRS TMS ([3]; 112.5 mg bid, Week 26, ALL): 2.1
Δ to placebo, change from baseline in UHDRS TMS ([3]; 112.5 mg bid, Week 26, Stage 1 BL TFC 11-13): −4.79
Δ to placebo, change from baseline in UHDRS TMS ([3]; 112.5 mg bid, Week 52, ALL): 2.71
Wk 52 Δ to placebo, change from baseline in UHDRS TMS ([3]; 112.5 mg bid, Week 52, Stage 1 BL TFC 11-13): −0.92
Δ to placebo, change from baseline in UHDRS TMS Chorea ([4]; 45 mg bid): 0.92
Wk 26 Δ to placebo, change from baseline in UHDRS TMS Chorea ([4]; 45 mg bid): −1.4
Δ to placebo, change from baseline in UHDRS TMS Chorea ([4]; 67.5 mg bid): 0.81
Wk 26 Δ to placebo, change from baseline in UHDRS TMS Chorea ([4]; 67.5 mg bid): −2.07
Δ to placebo, change from baseline in UHDRS TMS Chorea ([4]; 90 mg bid): 0.36
Wk 26 Δ to placebo, change from baseline in UHDRS TMS Chorea ([4]; 90 mg bid): −2.52
Δ to placebo, change from baseline in UHDRS TMS Chorea ([4]; 112.5 mg bid): 1.05
Wk 26 Δ to placebo, change from baseline in UHDRS TMS Chorea ([4]; 112.5 mg bid): −1.08
Δ to placebo, change from baseline in UHDRS TMS Finger Taps ([5]; 45 mg bid, Week 26, ALL): −0.3
Δ to placebo, change from baseline in UHDRS TMS Finger Taps ([5]; 45 mg bid, Week 26, BL TFC≥9, CAG Repeats <44, BL TMS 1st 3 Qs): −0.87
Δ to placebo, change from baseline in UHDRS TMS Finger Taps ([5]; 45 mg bid, Week 26, BL TFC≥9 and CAG Repeats>44): −0.86
Δ to placebo, change from baseline in UHDRS TMS Finger Tapping+Pronate-Supinate Hands [5, 6]: −0.79
Δ to placebo, change from baseline in UHDRS TMS Finger Taps [5, 6]: −0.59
Δ to placebo, change from baseline in UHDRS TMS Finger Tapping+Pronate-Supinate Hands [5, 7]: −0.37
Δ to placebo, change from baseline in UHDRS TMS Finger Taps [5, 7]: −0.31
Δ to placebo, change from baseline in UHDRS TMS Finger Taps ([5]; 67.5 mg bid, Week 26, ALL): −0.07
Δ to placebo, change from baseline in UHDRS TMS Finger Taps ([5]; 67.5 mg bid, Week 26, BL TFC≥9, CAG Repeats <44, BL TMS 1st 3 Qs): −0.36
Δ to placebo, change from baseline in UHDRS TMS Finger Taps ([5]; 67.5 mg bid, Week 26, BL TFC≥9 and CAG Repeats>44): −0.34
